According to ChEMBL document CHEMBL4152276, “Design, synthesis and biological evaluation of N-phenyl-(2,4-dihydroxypyrimidine-5-sulfonamido)benzoyl hydrazide derivatives as thymidylate synthase (TS) inhibitors and as potential antitumor drugs” (Eur J Med Chem, 2018):

Columns and labels:
Format in all cases: functional, cell-based
MDA-MB-231 = assay: Antiproliferative activity against human MDA-MB-231 cells after 24 hrs by MTT assay; settings: MDA-MB-231, 24 h
OVCAR-3 = assay: Antiproliferative activity against human OVCAR3 cells after 24 hrs by MTT assay; settings: OVCAR-3, 24 h
SGC-7901 = assay: Antiproliferative activity against human SGC7901 cells after 24 hrs by MTT assay; settings: SGC-7901, 24 h
A549 = assay: Antiproliferative activity against human A549 cells after 24 hrs by MTT assay; settings: A549, 24 h

Structure (SMILES) | IC50 (MDA-MB-231) | IC50 (OVCAR-3) | IC50 (SGC-7901) | IC50 (A549)
Cc1cccc(NNC(=O)c2ccc(NS(=O)(=O)c3cnc(O)nc3O)cc2)c1 | > 20 µM | > 20 µM | > 20 µM | > 20 µM
Cc1cccc(NNC(=O)c2ccccc2NS(=O)(=O)c2cnc(O)nc2O)c1 | > 20 µM | > 20 µM | > 20 µM | > 20 µM
O=C(NNc1ccc(F)cc1)c1cccc(NS(=O)(=O)c2cnc(O)nc2O)c1 | > 20 µM | > 20 µM | > 20 µM | > 20 µM
O=C(NNC(=O)c1ccccc1Cl)c1ccc(NS(=O)(=O)c2cnc(O)nc2O)cc1 | 13.9 µM | 5.22 µM | 3.24 µM | 1.9 µM
O=C(NNC(=O)c1ccccc1NS(=O)(=O)c1cnc(O)nc1O)c1ccccc1F | > 20 µM | 15.3 µM | > 20 µM | 7.15 µM
Cc1cccc(NNC(=O)c2cccc(NS(=O)(=O)c3cnc(O)nc3O)c2)c1 | > 20 µM | > 20 µM | > 20 µM | > 20 µM
O=C(NNc1ccccc1Cl)c1cccc(NS(=O)(=O)c2cnc(O)nc2O)c1 | 2.09 µM | 3.35 µM | 2.27 µM | 1.46 µM
Cc1ccccc1NNC(=O)c1cccc(NS(=O)(=O)c2cnc(O)nc2O)c1 | > 20 µM | > 20 µM | > 20 µM | 14.2 µM
O=C(NNC(=O)c1ccccc1NS(=O)(=O)c1cnc(O)nc1O)c1ccc(F)cc1 | > 20 µM | 15.1 µM | > 20 µM | > 20 µM
O=C(NNc1cccc(Cl)c1)c1cccc(NS(=O)(=O)c2cnc(O)nc2O)c1 | 7.76 µM | 8.04 µM | 11.8 µM | 6.64 µM
CCCCOc1ccc(C(=O)NNC(=O)c2ccc(NS(=O)(=O)c3cnc(O)nc3O)cc2)cc1 | 11.9 µM | 12.8 µM | 14.7 µM | 9.01 µM
O=C(NNC(=O)c1ccccc1NS(=O)(=O)c1cnc(O)nc1O)c1ccccc1Cl | 8.31 µM | 18.2 µM | 2.41 µM | 5.29 µM
O=C(NNC(=O)c1ccc(NS(=O)(=O)c2cnc(O)nc2O)cc1)c1ccc(F)cc1 | > 20 µM | > 20 µM | > 20 µM | > 20 µM
O=C(NNc1ccccc1F)c1cccc(NS(=O)(=O)c2cnc(O)nc2O)c1 | > 20 µM | 17 µM | > 20 µM | 11.1 µM
O=C(NNC(=O)c1ccccc1Cl)c1cccc(NS(=O)(=O)c2cnc(O)nc2O)c1 | 2.36 µM | 7.3 µM | 6.07 µM | 3.74 µM
O=C(NNc1cccc(Cl)c1)c1ccc(NS(=O)(=O)c2cnc(O)nc2O)cc1 | 17.4 µM | 8.41 µM | 11.6 µM | 7.29 µM
O=C(NNc1ccccc1Cl)c1ccc(NS(=O)(=O)c2cnc(O)nc2O)cc1 | 4.01 µM | 7.23 µM | 3.63 µM | 3.34 µM
Cc1ccccc1NNC(=O)c1ccc(NS(=O)(=O)c2cnc(O)nc2O)cc1 | > 20 µM | > 20 µM | > 20 µM | 14.5 µM
Cc1ccc(C(=O)NNC(=O)c2ccccc2NS(=O)(=O)c2cnc(O)nc2O)cc1 | > 20 µM | 12.9 µM | 15.5 µM | > 20 µM

Structure (SMILES) | IC50 (MDA-MB-231) | IC50 (OVCAR-3) | IC50 (SGC-7901) | IC50 (A549)
O=C(NNc1ccc(F)cc1)c1ccccc1NS(=O)(=O)c1cnc(O)nc1O | > 20 µM | > 20 µM | > 20 µM | > 20 µM
Cc1ccccc1NNC(=O)c1ccccc1NS(=O)(=O)c1cnc(O)nc1O | > 20 µM | > 20 µM | > 20 µM | > 20 µM
Cc1ccc(C(=O)NNC(=O)c2ccc(NS(=O)(=O)c3cnc(O)nc3O)cc2)cc1 | > 20 µM | > 20 µM | > 20 µM | 15.9 µM
Cc1ccccc1C(=O)NNC(=O)c1cccc(NS(=O)(=O)c2cnc(O)nc2O)c1 | 18.1 µM | > 20 µM | > 20 µM | 8.01 µM
Cc1ccc(C(=O)NNC(=O)c2cccc(NS(=O)(=O)c3cnc(O)nc3O)c2)cc1 | > 20 µM | > 20 µM | 10.1 µM | > 20 µM
CCCCOc1ccc(C(=O)NNC(=O)c2cccc(NS(=O)(=O)c3cnc(O)nc3O)c2)cc1 | 17 µM | 9.2 µM | 7.37 µM | 7.76 µM
Cc1ccccc1C(=O)NNC(=O)c1ccc(NS(=O)(=O)c2cnc(O)nc2O)cc1 | 7.04 µM | > 20 µM | > 20 µM | 15.1 µM
O=C(NNC(=O)c1cccc(NS(=O)(=O)c2cnc(O)nc2O)c1)c1ccc(F)cc1 | > 20 µM | > 20 µM | > 20 µM | > 20 µM
O=C(NNC(=O)c1cccc(Cl)c1)c1ccc(NS(=O)(=O)c2cnc(O)nc2O)cc1 | 4.16 µM | 7.71 µM | 8.61 µM | 2.29 µM
O=C(NNC(=O)c1cccc(NS(=O)(=O)c2cnc(O)nc2O)c1)c1cccc(Cl)c1 | 3.18 µM | 13.5 µM | 7.31 µM | 6 µM
O=C(NNc1ccccc1F)c1ccc(NS(=O)(=O)c2cnc(O)nc2O)cc1 | > 20 µM | > 20 µM | 16 µM | 11.7 µM
O=C(NNC(=O)c1ccccc1F)c1ccc(NS(=O)(=O)c2cnc(O)nc2O)cc1 | > 20 µM | 16 µM | > 20 µM | 7.61 µM
O=C(NNc1ccccc1F)c1ccccc1NS(=O)(=O)c1cnc(O)nc1O | > 20 µM | 9.57 µM | > 20 µM | 9.61 µM
O=C(NNc1ccccc1Cl)c1ccccc1NS(=O)(=O)c1cnc(O)nc1O | 18.9 µM | 14.1 µM | > 20 µM | 5.48 µM
CCCCOc1ccc(C(=O)NNC(=O)c2ccccc2NS(=O)(=O)c2cnc(O)nc2O)cc1 | 6.83 µM | 5.01 µM | 6.89 µM | 4.96 µM
Cc1ccccc1C(=O)NNC(=O)c1ccccc1NS(=O)(=O)c1cnc(O)nc1O | 5.57 µM | > 20 µM | 13 µM | 5.45 µM
O=C(NNC(=O)c1ccccc1F)c1cccc(NS(=O)(=O)c2cnc(O)nc2O)c1 | > 20 µM | 10.8 µM | > 20 µM | 10.8 µM
O=C(NNc1cccc(Cl)c1)c1ccccc1NS(=O)(=O)c1cnc(O)nc1O | 11.8 µM | 5.52 µM | 10.8 µM | 5.29 µM
O=C(NNc1ccc(F)cc1)c1ccc(NS(=O)(=O)c2cnc(O)nc2O)cc1 | > 20 µM | > 20 µM | > 20 µM | > 20 µM
